Measured values reported in US10450271B2 (priority 2014, dated 2019).

Key:
[1] = system: Fusarium graminearum; type: cell-based; conditions: ethanol as solvent; 500 uL medium lyophilized; HPLC can detect down to ng/sample
[2] = system: Aspergillus parasiticus; type: cell-based

## COc1cc(/C=C/C(=O)N2CCCC2)ccc1O [Compound 2]
[1]
  DON detection by HPLC analysis: some DON was detected

## COc1cc(/C=C/C(=O)N2CCCCC2)ccc1O [Compound 1]
[1]
  DON detection by HPLC analysis: some DON was detected

## COc1cc(/C=C/C(=O)N2CCCCC2=O)ccc1O [Compound 3, (E)-1-(3-(4-hydroxy-3-methyoxyphenyl)acryloyl)piperidin-2-one]
[2]; 25 ppm, liquid culture, TLC analysis
  reduction of aflatoxin levels: up to 80%
[2]; liquid culture, TLC analysis
  lowest effective concentration for reducing aflatoxin levels: 25 ppm
[1]
  DON detection by HPLC analysis: not detected

## CCC=CCC=CCC=CCCCCCCCC(=O)N1CCCCC1 [Compound 7]
[2]
  effect on aflatoxin accumulation in culture (in words): reduced aflatoxin accumulation in culture, but the effect was inconsistent from one trial to the next
[1]
  DON detection by HPLC analysis: not detected
